Reference: publication PMC5982655, “Interaction of the New Monofunctional Anticancer Agent Phenanthriplatin With Transporters for Organic Cations” (Frontiers in Chemistry, 2018)
Entries after “also recorded” stand apart in the source; their conditions may differ.

Columns and labels:
[1] = tested on: HEK293 hMATE2K cells; experiment: MTT cell viability, HEK293 hMATE2K cells; format: cell-based, human; details: 100 μM phenanthriplatin
Description: (§1) A modified 3-(4,5-dimethylthiazol-2-yl)-2,5-diphenyltetrazolium bromide (MTT) assay (Mosmann, [1983]) was used to test the chemosensitivity of cells to phenanthriplatin and, in some experiments, to cisplatin by determining the glycolysis rate via the reduction of the yellow tetrazolium salt MTT to a purple formazan dye, as previously described (Wehe et al., [2014]). Briefly, after growing for 24 h in the incubator, cells expressing or not hOCT2, hMATE1, hMATE2 or Ctr1 were treated for 10 min with platinum derivatives. Control cells were incubated with drug-free complete cell culture medium. Afterwards, the medium was carefully removed and replaced by 200 μL of fresh complete cell culture medium. After incubation for another 24 h, 10 μL of MTT solution containing 5 mg/mL of the dye were added to each well, and the cells were again incubated for 3 h. The medium was then removed and 100 μL of lysis buffer containing 10% (w/v) sodium dodecyl sulfate and 40% (v/v) dimethylformamide was added to each well. The plates were shaken for 10 min to destroy the cell structure and dissolve the blue formazan dye (Furchert et al., [2007]; Wehe et al., [2014]). Finally, the absorbance was measured at 590 nm using an automated microtiter plate reader (Infinite M200; Tecan, Männedorf, Switzerland). The percentage of viable cells in the untreated controls was compared to that for the various treatments. […]

[2] = tested on: HEK 293 hOCT2 cells; experiment: MTT cell viability, HEK 293 hOCT2 cells; format: cell-based, human; details: 10 min
Description: (§2) A modified 3-(4,5-dimethylthiazol-2-yl)-2,5-diphenyltetrazolium bromide (MTT) assay (Mosmann, [1983]) was used to test the chemosensitivity of cells to phenanthriplatin and, in some experiments, to cisplatin by determining the glycolysis rate via the reduction of the yellow tetrazolium salt MTT to a purple formazan dye, as previously described (Wehe et al., [2014]). Briefly, after growing for 24 h in the incubator, cells expressing or not hOCT2, hMATE1, hMATE2 or Ctr1 were treated for 10 min with platinum derivatives. Control cells were incubated with drug-free complete cell culture medium. Afterwards, the medium was carefully removed and replaced by 200 μL of fresh complete cell culture medium. After incubation for another 24 h, 10 μL of MTT solution containing 5 mg/mL of the dye were added to each well, and the cells were again incubated for 3 h. The medium was then removed and 100 μL of lysis buffer containing 10% (w/v) sodium dodecyl sulfate and 40% (v/v) dimethylformamide was added to each well. The plates were shaken for 10 min to destroy the cell structure and dissolve the blue formazan dye (Furchert et al., [2007]; Wehe et al., [2014]). Finally, the absorbance was measured at 590 nm using an automated microtiter plate reader (Infinite M200; Tecan, Männedorf, Switzerland). The percentage of viable cells in the untreated controls was compared to that for the various treatments. Experiments carried out with DAOY and UW228 cells followed a similar protocol except that these cells were incubated for 24 h with phenanthriplatin.

[3] = target: T1, hMATE2K (Homo sapiens, UniProt Q86VL8); experiment: Inhibition of ASP+ uptake in HEK 293 cells expressing hMATE2K; format: cell-based; details: HEK 293 hMATE2K, 10 μM ASP+
T1 construct: expressed in transfected cells
Description: The interaction of phenanthriplatin with transporters for organic cations (OCT1-3, MATE1, and MATE2K) was investigated by measuring its effects on the uptake of the fluorescent organic cation 4-(4-dimethylamino)styryl-N-methylpyridinium (ASP^+). Microfluorometric measurements of ASP^+ uptake were performed with a fluorescence plate reader (Infinity 200, Tecan, Crailsheim, Germany; excitation at 465 nm, emission at 590 nm) as described previously for cultured HEK 293 cells (Wilde et al., [2009]). Before measurements, the culture medium in the wells of the 96 well microtiter plate containing HEK 293 cells was replaced by a HCO3- -free Ringer-like solution containing (in mM) NaCl 145, K2HPO4 1.6, KH2PO4 0.4, D-glucose 5, MgCl2 1, calcium gluconate 1.3, and pH adjusted to 7.4. Fluorescence was measured dynamically at 37°C in each well before and after ASP^+ addition to HCO3- -free Ringer-like solution, alone or together with increasing phenanthriplatin concentrations, and plotted versus time. ASP^+ (final concentration 1 or 10 μM for experiments with OCTs or MATEs, respectively) was added after the third sampling interval. Emission from the complete area of the well bottom was analyzed four times and averaged for each well. […] Background fluorescence was measured for each plate in wells with identical solutions containing no cells and subtracted from each well containing cells. […]

[4] = tested on: DAOY cells; experiment: MTT cell viability, DAOY medulloblastoma cells; format: cell-based
Description: as §2
(§3) Data are presented as mean values ± SEM, with (n) referring to the number of wells. IC50 values defined as the concentration of platinum agent required to inhibit uptake of ASP^+ by 50% and EC50 values used to assess cell viability were obtained by sigmoidal concentration-response curve fitting using GraphPad Prism, Version 5.3 (GraphPad Software, San Diego, USA). […] For multiple comparisons, ANOVA with Bonferroni post-test was used. A P-value < 0.05 was considered statistically significant.

[5] = target: T2, hMATE1 (Homo sapiens, UniProt Q96FL8); experiment: Inhibition of ASP+ uptake in HEK 293 cells expressing hMATE1; format: cell-based; details: HEK 293 hMATE1, 10 μM ASP+
T2 construct: expressed in transfected cells
T2 sequence (Q96FL8 1-570): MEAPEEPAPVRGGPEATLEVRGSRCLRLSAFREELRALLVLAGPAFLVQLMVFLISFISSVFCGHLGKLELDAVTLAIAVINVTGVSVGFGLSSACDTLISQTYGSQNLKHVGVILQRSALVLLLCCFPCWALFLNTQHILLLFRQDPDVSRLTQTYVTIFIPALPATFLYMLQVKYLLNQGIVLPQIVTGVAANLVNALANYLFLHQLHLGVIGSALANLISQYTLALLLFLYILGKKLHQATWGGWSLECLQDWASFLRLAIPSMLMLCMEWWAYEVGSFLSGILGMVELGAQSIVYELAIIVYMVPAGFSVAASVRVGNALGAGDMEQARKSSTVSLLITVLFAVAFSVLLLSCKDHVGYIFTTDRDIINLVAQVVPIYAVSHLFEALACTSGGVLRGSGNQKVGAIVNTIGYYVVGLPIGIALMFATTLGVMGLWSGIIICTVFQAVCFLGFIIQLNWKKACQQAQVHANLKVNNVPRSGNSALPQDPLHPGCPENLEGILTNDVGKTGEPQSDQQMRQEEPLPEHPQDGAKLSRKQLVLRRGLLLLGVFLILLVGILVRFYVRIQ
Description: The interaction of phenanthriplatin with transporters for organic cations (OCT1-3, MATE1, and MATE2K) was investigated by measuring its effects on the uptake of the fluorescent organic cation 4-(4-dimethylamino)styryl-N-methylpyridinium (ASP^+). Microfluorometric measurements of ASP^+ uptake were performed with a fluorescence plate reader (Infinity 200, Tecan, Crailsheim, Germany; excitation at 465 nm, emission at 590 nm) as described previously for cultured HEK 293 cells (Wilde et al., [2009]). Before measurements, the culture medium in the wells of the 96 well microtiter plate containing HEK 293 cells was replaced by a HCO3- -free Ringer-like solution containing (in mM) NaCl 145, K2HPO4 1.6, KH2PO4 0.4, D-glucose 5, MgCl2 1, calcium gluconate 1.3, and pH adjusted to 7.4. Fluorescence was measured dynamically at 37°C in each well before and after ASP^+ addition to HCO3- -free Ringer-like solution, alone or together with increasing phenanthriplatin concentrations, and plotted versus time. ASP^+ (final concentration 1 or 10 μM for experiments with OCTs or MATEs, respectively) was added after the third sampling interval. Emission from the complete area of the well bottom was analyzed four times and averaged for each well. […] Background fluorescence was measured for each plate in wells with identical solutions containing no cells and subtracted from each well containing cells. Experiments were performed with cells from one passage of the same day with controls and test replicates in the same plate.
as §3

[6] = tested on: Ctr1^−/− MEFs; experiment: MTT cell viability, Ctr1-/- MEFs; format: cell-based, mouse
Description: as §2

[7] = tested on: HEK293 hMATE1 cells; experiment: MTT cell viability, HEK293 hMATE1 cells; format: cell-based, human; details: HEK293 hMATE1, 100 μM phenanthriplatin
Description: as §1

T1 sequence (Q86VL8 1-566 isoform Q86VL8-3): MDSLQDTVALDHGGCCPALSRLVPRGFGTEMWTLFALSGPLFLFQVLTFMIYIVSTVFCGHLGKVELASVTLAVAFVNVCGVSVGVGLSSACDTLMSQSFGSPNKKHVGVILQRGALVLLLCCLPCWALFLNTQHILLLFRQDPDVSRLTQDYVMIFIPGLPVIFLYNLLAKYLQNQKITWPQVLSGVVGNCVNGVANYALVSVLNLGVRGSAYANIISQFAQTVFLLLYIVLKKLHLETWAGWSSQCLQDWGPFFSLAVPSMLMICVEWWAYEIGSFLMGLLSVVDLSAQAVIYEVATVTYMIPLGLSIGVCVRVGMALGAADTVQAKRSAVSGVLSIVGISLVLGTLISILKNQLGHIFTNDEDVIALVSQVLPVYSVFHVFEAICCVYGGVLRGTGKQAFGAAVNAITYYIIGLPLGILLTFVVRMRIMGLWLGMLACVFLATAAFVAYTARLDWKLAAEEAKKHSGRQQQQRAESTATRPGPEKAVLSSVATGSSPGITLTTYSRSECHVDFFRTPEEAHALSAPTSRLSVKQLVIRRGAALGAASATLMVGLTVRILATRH

Compound: N.N.[Cl][Pt+].c1ccc2c(c1)cnc1ccccc12 [phenanthriplatin, cis-[Pt(NH3)2Cl(phenanthridine)]^+]
- Cell viability (MTT) [1]: induces significant cell toxicity
- Cell viability (MTT) ([2]; HEK 293 hOCT2, 10 μM phenanthriplatin + 100 μM cimetidine): reduced upon co-incubation of phenanthriplatin with cimetidine
- Cell viability (MTT) ([2]; HEK 293 hOCT2, 10 μM phenanthriplatin): significant phenanthriplatin toxicity
- IC50 [3]: 57 µM
- logIC50 (logEC50) ± SEM for inhibition of ASP+ uptake [3]: −4.24 ± 0.07
- Protection from phenanthriplatin toxicity by cimetidine (cell viability, MTT) ([4]; 24 h, 1 μM phenanthriplatin + 10-fold higher cimetidine): efficaciously protected against phenanthriplatin toxicity by cimetidine; also recorded: significantly decreased the toxicity of this compound in DAOY
- EC50 ([4]; 24 h incubation, MTT): 0.9 µM
- logEC50 ± SEM for viability ([4]; 24 h incubation, MTT): −6.05 ± 0.02
- IC50 [5]: 101 µM
- logIC50 (logEC50) ± SEM for inhibition of ASP+ uptake [5]: −3.99 ± 0.21
- Cell viability (MTT) ([6]; 1 mM, 10 min): toxic; also recorded: still present in Ctr1^−/− MEFs even though at lower level than in Ctr1^+/+ MEFs
- Cell viability (MTT) ([6]; lower concentrations (<1 mM)): did not change the cell viability
- Cell viability (MTT) [7]: induces significant cell toxicity
